Test system: Lepeophtheirus salmonis (sea lice)
Experiment: Sea lice bioassay, 24 hours exposure to test compound
Type: in vivo
Details: predominantly pre-adult and adult stage, generally chemical resistant strain

CS(=O)(=O)CC(=O)N1CC2(C1)OCc1cc(C3=NOC(c4cc(Cl)c(F)c(Cl)c4)(C(F)(F)F)C3)ccc12 (centres unmarked) [Example 1]
Adult Females (EC50) (adult female sea lice): 0.13 ppb | Adult Males (EC50) (adult male sea lice): 0.08 ppb
